# Patent US20150140002A1, “USE OF A PCSK9 INHIBITOR TO TREAT […]” (Sanofi, priority 2013, published 2015)
# Values joined by “and” are separate entries in the source; they are usually repeats but may differ in a detail not shown here. Identical values can stand only once.
# How the values were obtained:
# [1] = system: patients with hypercholesterolemia at moderate cardiovascular (CV) risk; conditions: in vivo
# [2] = Example 2: serum mAb316P concentration (ELISA); format: in vivo, human
# Method: If needed, total and free PCSK9 concentrations could be measured from the same PK sample.
# To collect information on the absorption phase, an optional PK sample was collected at 5 days (±2) after the week 22 IMP injection or at 5 days (±2) after any subsequent IMP injection while the subject was on treatment.
# The lower limit of quantification (LLQ) for this assay is 0.078 μg/mL.
# [3] = system: healthy subjects and hypercholesterolemic patients (familial or non-familial); experiment: Phase 1 studies of mAb316P (safety, tolerability, PK/PD; IV or SC); format: in vivo, human
# Method: Two studies were single dose administration (one study with IV administration of doses from 0.3 mg to 12 mg/kg and another study with SC administration of doses from 50 mg to 250 mg) conducted in healthy subjects with LDL-C>100 mg/dL for whom statin therapy was not indicated. The third study was conducted in hypercholesterolemic patients (familial or non-familial) with single to multiple SC administration of 50 mg, 100 mg, 150 mg and 200 mg either as add-on to stable doses of atorvastatin from 10 mg to 40 mg/day or as monotherapy.
# No pattern of adverse events (AEs) related to the drug was identified. […] The magnitude and duration of these reductions were positively related to the dose administered. It should also be noted that in the third study, results were similar in the familial and non-familial hypercholesterolemic patients.
# [4] = system: patients with hypercholesterolemia at moderate cardiovascular (CV) risk; experiment: Example 2: Phase 3 monotherapy trial mAb316P versus ezetimibe, lipid parameters; format: in vivo, human; conditions: for Lp(a) adjusted mean (SE) % change from baseline to week 24 / TGs adjusted mean (SE) % change from baseline to week 24: combined estimate; for LDL-C LS mean (SE) change from baseline (%): baseline to Week 24; for time-course of LDL-C lowering: week 4 to week 24, on-treatment; for between-group LS mean (SE) difference in LDL-C: week 12
# Description: Randomization was stratified according to DM status. […] Patients were followed for 8 weeks after the last visit of the Double Blind Treatment Period (DBTP).
# Double-blind treatment period (DBTP)—A randomized, double-blind double dummy study treatment period of 24 weeks. The first injection during the double-blind period was done at the site on the day of randomization (Week 0 [D1]-V3) and as soon as possible after the call to IVRS/IWRS for randomization into the study. The subsequent injections were done by the patient (self-injection) or another designated person (such as spouse, relative, etc.) at a patient-preferred location (home, etc.).
# The primary efficacy endpoint was the percent change in calculated LDL-C from baseline to week 24, which is defined as: 100×(calculated LDL-C value at Week 24−calculated LDL-C value at baseline)/calculated LDL-C value at baseline.
# Total-C, HDL-C, TG, Apo B, Apo A-1, and Lp (a) were directly measured. LDL-C was calculated using the Friedewald formula at all visits (except Week −1 and Follow Up visit). If TG values exceeded 400 mg/dL (4.52 mmol/L) then the central lab reflexively measured (via the beta quantification method) the LDL-C rather than calculating it. Non-HDL-C was calculated by subtracting HDL-C from the total-C. Ratio Apo B/Apo A-1 was calculated.
# The primary endpoint was assessed in the intent-to-treat (ITT) population, which included all randomized patients who had at least 1 calculated LDL-C value at baseline and at one of the planned time points from weeks 4 to 24.
# Missing data were accounted for by means of a mixed effect model with repeated measures (MMRM) approach (Siddiqui et al., MMRM vs. LOCF: a comprehensive comparison based on simulation study and 25 NDA datasets”, J Biopharm Stat, vol. 19, pp. 227-246 (2009); National Research Council, “The Prevention and Treatment of Missing Data in Clinical Trials” Panel on Handling Missing Data in Clinical Trials. Committee on National Statistics, Division of Behavioral and Social Sciences and Education. 2010. Washington, D.C.: The National Academies Press; Andersen et al., “On the practical application of mixed effects models for repeated measures to clinical trial data”, Pharm Stat., vol. 12, pp. 7-16 (2013)). For the ITT analysis, all available measurements at planned time points from weeks 4 to 24 (meaning week 4, 8, 12, 16, and 24), whatever their status on or off-treatment, were used in the MMRM. One MMRM model was used for LDL-C to provide least-squares means estimates and comparison between treatment arms at weeks 24 and 12. Further details on the model are given below. For the on-treatment analysis, all available on-treatment measurements (i.e. up to 21 days after last injection/3 days after last capsule, whichever comes first) at planned time points from weeks 4 to 24 were used in the MMRM model. In the same way as for the ITT analysis, one model was used to provide estimates and comparison at week 24 and week 12 for the on-treatment analysis. Continuous key secondary endpoints other than Lp(a) and triglycerides were analyzed in a similar fashion as the primary endpoint and description of the statistical methodology for secondary endpoints and subgroup analysis is provided below.
# Outputs from the model were the baseline-adjusted least-squares (LS) mean estimates at week 24 for both treatment groups with their corresponding standard error (SE). Appropriate contrast statement was used to test the difference between these estimates at the 2-sided 5% alpha level.
# To analyze the key secondary endpoints, a hierarchical procedure was used to control type I error and handle multiplicity. Secondary efficacy endpoints were tested sequentially using the order given above, in the intent-to-treat population.
# [5] = Week 4, uptitrated at Week 12 (n = 14)
# [6] = Week 12, uptitrated at Week 12 (n = 14)
# [7] = Week 24, non-uptitrated, 75 mg Q2W (n = 32)
# [8] = Week 24, uptitrated to 150 mg Q2W at Week 12 (n = 14)
substance,measurement,setting,value
"mAb316P: human anti-PCSK9 antibody; heavy chain SEQ ID NO:5, light chain SEQ ID NO:9; HCVR SEQ ID NO:1, LCVR SEQ ID NO:6",TEAE class infection,[1],42.3%
same,"serum MAb316P Ctrough, mean (SD)","[2]; Week 4, non-uptitrated (n = 32)",5784.7 (2456.4) ng/mL
same,"serum MAb316P Ctrough, mean (SD)",[2]; [5],4533.9 (3996.5) ng/mL
same,"serum MAb316P Ctrough, mean (SD)","[2]; Week 12, non-uptitrated (n = 32)",5979.0 (2780.3) ng/mL
same,"serum MAb316P Ctrough, mean (SD)",[2]; [6],5702.9 (4816.4) ng/mL
same,"serum MAb316P Ctrough, mean (SD)",[2]; [7],6991.4 (4418.4) ng/mL
same,"serum MAb316P Ctrough, mean (SD)",[2]; [8],14772.2 (10201.7) ng/mL
same,change of serum mAb316P levels after uptitration,[2]; patients uptitrated at Week 12 (75 to 150 mg Q2W),approximately doubled
same,reductions from baseline in LDL-C,"[3]; Phase 1 studies, up to (maximum)",up to 60%
same,tolerability,"[3]; healthy subjects and patients, all doses",generally well tolerated at all doses
same,Apo A-1 LS mean (SE) % change from baseline to week 24,[4]; ITT,4.7 (1.6) %
same,Apo B LS mean (SE) % change from baseline to week 24,[4]; ITT,−36.7 (2.3) %
same,HDL-C LS mean (SE) % change from baseline to week 24,[4]; ITT,6.0 (1.9) %
same,Non-HDL-C LS mean (SE) % change from baseline to week 24,[4]; ITT,−40.6 (2.8) %
same,Total cholesterol LS mean (SE) % change from baseline to week 24,[4]; ITT,−29.6 (2.1) %
same,Lp(a) adjusted mean (SE) % change from baseline to week 24,[4]; ITT,−16.7 (3.7) %
same,TGs adjusted mean (SE) % change from baseline to week 24,[4]; ITT,−11.9 (4.2) %
same,LDL-C LS mean (SE) Week 24 change from baseline (%),"[4]; ITT, excluding post up-titration data from patients up-titrated having LDL-C <100 mg/dL",−44.3%
same,LS mean (SE) percent reductions in LDL-C from baseline to week 24,"[4]; ITT, given as reduction",47 (3) %
same,LDL-C reduction at week 12,"[4]; ITT, mAb316P 75 mg Q2W before up-titration, ezetimibe 10 mg daily",48 (3) % and 48%
same,Apo A-1 LS mean (SE) % change from baseline to week 24,[4]; On-treatment,5.3 (1.6) %
same,Apo B LS mean (SE) % change from baseline to week 24,[4]; On-treatment,−40.8 (1.9) %
same,HDL-C LS mean (SE) % change from baseline to week 24,[4]; On-treatment,8.0 (1.9) %
same,Non-HDL-C LS mean (SE) % change from baseline to week 24,[4]; On-treatment,−47.1 (1.9) %
same,Total cholesterol LS mean (SE) % change from baseline to week 24,[4]; On-treatment,−34.2 (1.6) %
same,Lp(a) adjusted mean (SE) % change from baseline to week 24,[4]; On-treatment,−17.7 (4.1) %
same,TGs adjusted mean (SE) % change from baseline to week 24,[4]; On-treatment,−14.7 (4.4) %
same,"LDL-C (on treatment), mean (SD)","[4]; Week 4, non-uptitrated at Week 12 (n = 32)",59.8 (13.6) mg/dL
same,"LDL-C (on treatment), mean (SD)",[4]; [5],83.5 (23.6) mg/dL
same,"LDL-C (on treatment), mean (SD)","[4]; Week 12, non-uptitrated at Week 12 (n = 32)",58.8 (16.8) mg/dL
same,"LDL-C (on treatment), mean (SD)",[4]; [6],78.3 (22.8) mg/dL
same,LDL-C LS mean difference (SE) % MAb316P versus ezetimibe,"[4]; Week 24, ITT, excluding post up-titration data from patients up-titrated having LDL-C <100 mg/dL",−28.7%
same,LDL-C LS mean difference (SE) % MAb316P versus ezetimibe,"[4]; Week 24, ITT, listed as MAb316P",−31.6%
same,"LDL-C (on treatment), mean (SD)",[4]; [7],57.8 (16.2) mg/dL
same,"LDL-C (on treatment), mean (SD)",[4]; [8],74.8 (19.5) mg/dL
same,LDL-C LS mean (SE) change from baseline (%),[4]; ITT,−47.2%
same,LDL-C LS mean (SE) change from baseline (%),[4]; On-treatment,−54.1%
same,estimated proportions of patients with LDL-C reductions ≧50% at week 12,"[4]; before up-titration, ITT",58%
same,proportions of patients with LDL-C reductions ≧50% at week 12,"[4]; before up-titration, on-treatment analysis",65%
same,reduction in Lp(a),"[4]; current study, discussion",18%
same,patients who achieved LDL-C<70 mg/dL at Week 8,"[4]; of the 46 mAb316P-treated patients in PK analyses, 75 mg Q2W",32 patients
same,LS mean (SE) LDL-C reductions from baseline to week 24,"[4]; on-treatment analysis, given as reduction",54 (2) %
same,LDL-C reduction at week 12,"[4]; on-treatment analysis, mAb316P 75 mg Q2W",53 (2) % and 53%
same,reduction in LDL-C at 12 weeks,"[4]; summary, mAb316P 75mg Q2W arm, monotherapy population",~50%
same,time-course of LDL-C lowering,[4],robust LDL-C reductions maintained from week 4 to end of the treatment period at week 24
same,time-course of LDL-C lowering,[4]; listed as MAb316P,sustained LDL-lowering effect from weeks 4 to 24
same,between-group LS mean (SE) difference in LDL-C,[4]; ITT,−28 (4) %
same,between-group LS mean (SE) difference in LDL-C,[4]; on-treatment analysis,−33 (3) %
same,Apo A-1 LS mean difference (SE) % MAb316P versus ezetimibe,"[4]; week 24, ITT",5.3 (2.2) %
same,Apo B LS mean difference (SE) % MAb316P versus ezetimibe,"[4]; week 24, ITT",−25.8 (3.3) %
same,HDL-C LS mean difference (SE) % MAb316P versus ezetimibe,"[4]; week 24, ITT",4.4 (2.7) %
same,LDL-C LS mean difference (SE) % MAb316P versus ezetimibe,"[4]; week 24, ITT",−32 (4) %
same,Lp(a) mean difference (SE) % MAb316P versus ezetimibe,"[4]; week 24, ITT",−4.4 (5.3) %
same,Non-HDL-C LS mean difference (SE) % MAb316P versus ezetimibe,"[4]; week 24, ITT",−25.5 (4.1) %
same,TGs mean difference (SE) % MAb316P versus ezetimibe,"[4]; week 24, ITT",−1.2 (5.9) %
same,Total cholesterol LS mean difference (SE) % MAb316P versus ezetimibe,"[4]; week 24, ITT",−18.7 (3.0) %
same,Apo A-1 LS mean difference (SE) % MAb316P versus ezetimibe,"[4]; week 24, On-treatment",6.1 (2.3) %
same,Apo B LS mean difference (SE) % MAb316P versus ezetimibe,"[4]; week 24, On-treatment",−29.2 (2.6) %
same,HDL-C LS mean difference (SE) % MAb316P versus ezetimibe,"[4]; week 24, On-treatment",6.2 (2.7) %
same,LDL-C LS mean difference (SE) % MAb316P versus ezetimibe,"[4]; week 24, On-treatment",−36.9%
same,Lp(a) mean difference (SE) % MAb316P versus ezetimibe,"[4]; week 24, On-treatment",−5.4 (5.7) %
same,Non-HDL-C LS mean difference (SE) % MAb316P versus ezetimibe,"[4]; week 24, On-treatment",−30.5 (2.7) %
same,TGs mean difference (SE) % MAb316P versus ezetimibe,"[4]; week 24, On-treatment",−1.9 (6.0) %
same,Total cholesterol LS mean difference (SE) % MAb316P versus ezetimibe,"[4]; week 24, On-treatment",−22.2 (2.3) %
